For 15 molecules, IC50 and Activity results are on record in ChEMBL document CHEMBL3352806, “Cytotoxic bibenzyl dimers from the stems of Dendrobium fimbriatum Hook” (Bioorg Med Chem Lett, 2014).

Format in all cases: functional, cell-based
For experiment [1], the system named is MCF7. Nature of the experiment: Cytotoxicity against human MCF7 cells assessed as reduction in cell number.
A short description of experiment [2]: Cytotoxicity against human HL60 cells assessed as reduction in cell number. To be noted: HL-60.
Experiment [3] deals with A549. In words: Cytotoxicity against human A549 cells assessed as reduction in cell number.
Experiment [4] has as its system SW480. In words: Cytotoxicity against human SW480 cells assessed as reduction in cell number.
Experiment [5] concerns SMMC-7721. In words: Cytotoxicity against human SMMC7721 cells assessed as reduction in cell number.
The test system of experiment [6] is SMMC-7721. In words: Cytotoxicity against human SMMC7721 cells assessed as reduction in cell number at 40 uM.
The subject of experiment [7] is SW480. In words: Cytotoxicity against human SW480 cells assessed as reduction in cell number at 40 uM.
The subject of experiment [8] is A549. Nature of the experiment: Cytotoxicity against human A549 cells assessed as reduction in cell number at 40 uM.
The subject of a further experiment is HL-60. Nature of the experiment: Cytotoxicity against human HL60 cells assessed as reduction in cell number at 40 uM.
Experiment [9] has as its system MCF7. Nature of the experiment: Cytotoxicity against human MCF7 cells assessed as reduction in cell number at 40 uM.

Calls of active or inactive are those of the source. No cut-off for these calls is given here.

What is called IC50 is the concentration that gives 50% inhibition. With `COc1ccc(CCc2cc(OC)c(O)c(OC)c2)cc1O`, the IC50 in the experiment on MCF7 [1] was 12.3 µM; in experiment [2], 2.95 µM; with A549 [3], 6.6 µM; with SW480 [4], 5.17 µM; in the experiment with SMMC-7721 [5], 10.1 µM.

`COc1cc(O)c(Cc2c(O)cc(OC)cc2CCc2ccc(O)c(OC)c2)c(CCc2ccc(O)c(OC)c2)c1`: the IC50 with MCF7 [1] worked out at 13.7 µM; in experiment [2], 19.1 µM; in the experiment on A549 [3], 16.6 µM; in the experiment on SW480 [4], 18.8 µM; in the experiment on SMMC-7721 [5], 17.5 µM.

For the molecule `COc1cc(O)c(Cc2c(CCc3ccc(O)c(OC)c3)cc(O)cc2OC)c(CCc2ccc(O)c(OC)c2)c1`, the 50% inhibitory concentration (IC50) in the experiment on MCF7 [1] was determined as 7.75 µM; in experiment [2] it was 16.8 µM; in the experiment on A549 [3], 16.5 µM; in the experiment on SW480 [4], 21.2 µM; in the experiment with SMMC-7721 [5], 18.9 µM.

For `COc1cc(CCc2cc(O)cc(O)c2Cc2c(O)cc(O)cc2CCc2ccc(O)c(OC)c2)ccc1O`, the outcome in the experiment on SMMC-7721 [6], in the experiment on SW480 [7], with A549 [8], in the experiment on HL-60 and with MCF7 [9] was inactive.

Regarding `COc1cc(O)cc(CCc2cccc(O)c2)c1`, the result in the experiment on SMMC-7721 [6], in the experiment on SW480 [7], in the experiment with A549 [8], in the experiment with HL-60 and in the experiment with MCF7 [9] was inactive.

As for `COc1cc(CCc2cc(O)cc(O)c2)ccc1O`, the result with SMMC-7721 [6], in the experiment with SW480 [7], in the experiment on A549 [8], in the experiment on HL-60 and in the experiment with MCF7 [9] was inactive.

Consider `COc1cc(CC(OC)c2cc(OC)c(O)c(OC)c2)ccc1O` (stereo not given), for which the result in the experiment on SMMC-7721 [6], in the experiment with SW480 [7], with A549 [8], with HL-60 and in the experiment on MCF7 [9] was inactive.

For the molecule `COc1cc(CCc2cc(O)c(OC)c(OC)c2)ccc1O`, the half-maximal inhibitory concentration (IC50) was 37.1 µM with MCF7 [1]; 24.3 µM in [2]; above 40 µM in the experiment on A549 [3]; above 40 µM with SW480 [4]; above 40 µM in the experiment on SMMC-7721 [5].

`COc1cc(O)cc(CCc2ccc(O)c(OC)c2)c1`: the result with SMMC-7721 [6], with SW480 [7], with A549 [8], in the experiment on HL-60 and with MCF7 [9] was inactive.

In the case of `COc1cc(CCc2cc(O)c(Cc3c(CCc4cccc(O)c4)cc(O)cc3OC)c(OC)c2)ccc1O`, the 50% inhibitory concentration (IC50) in the experiment on MCF7 [1] is 24.8 µM; in [2], 22.3 µM; in the experiment on A549 [3], above 40 µM; in the experiment with SW480 [4] it was above 40 µM; in the experiment on SMMC-7721 [5], above 40 µM.

`COc1cc(CCc2cc(O)cc(OC)c2Cc2c(CCc3ccc(O)c(OC)c3)cc(O)cc2OC)ccc1O`: the 50% inhibitory concentration (IC50) in the experiment on MCF7 [1] was determined as 5.85 µM; in [2] it was 13.9 µM; in the experiment with A549 [3], 14.5 µM; in the experiment on SW480 [4] it was 18.8 µM; in the experiment with SMMC-7721 [5], 16.9 µM.

Regarding `COc1cc(CCc2cc(O)c(Cc3c(CCc4ccc(O)c(OC)c4)cc(O)cc3OC)c(OC)c2)ccc1O`, the IC50 turned out to be 12.1 µM in the experiment on MCF7 [1]; 15.8 µM in [2]; 15.6 µM in the experiment on A549 [3]; 18.2 µM with SW480 [4]; 16.6 µM in the experiment on SMMC-7721 [5].

As for `COc1cc(CCc2cc(OC)c(O)c(OC)c2)ccc1O` [MOSCATILIN], the IC50 in the experiment on MCF7 [1] was 6.2 µM; in experiment [2], 2.18 µM; in the experiment with A549 [3], 5.73 µM; with SW480 [4], 6.88 µM; in the experiment with SMMC-7721 [5], 4.07 µM.

Regarding `Oc1cc(O)c2c(c1)C[C@H](O)c1cccc(O)c1-2`, the outcome with SMMC-7721 [6], in the experiment on SW480 [7], in the experiment with A549 [8], with HL-60 and in the experiment with MCF7 [9] was inactive.

Take `COc1cc(O)c(Cc2c(O)cc(CCc3ccc(O)c(OC)c3)cc2OC)c(CCc2ccc(O)c(OC)c2)c1`: the 50% inhibitory concentration (IC50) with MCF7 [1] came to 12.7 µM; in experiment [2], 16.1 µM; in the experiment on A549 [3], 16.3 µM; in the experiment on SW480 [4], 17.2 µM; with SMMC-7721 [5], 18.3 µM.
